Measured values as given in patent publication US9745311B2, “Substituted pyrrolo[2,3-b]pyrazines as FGFR inhibitors” (Incyte Corporation, priority 2012, dated 2017).
Where two headings read alike, the source gives them in different places.

Tests used:
[1] = target: FGFR3 enzyme (Millipore) (Homo sapiens (Human), UniProt P22607); details: read-out: FGFR3 IC50, ATP 140 μM
Experimental: (§1) The inhibitor potency of compounds was measured in an enzyme assay that measures peptide phosphorylation using FRET measurements to detect product formation. Inhibitors were serially diluted in DMSO and a volume of 0.5 μL was transferred to the wells of a 384-well plate. For FGFR3, a 10 μL volume of FGFR3 enzyme (Millipore) diluted in assay buffer (50 mM HEPES, 10 mM MgCl2, 1 mM EGTA, 0.01% Tween-20, 5 mM DTT, pH 7.5) was added to the plate and pre-incubated for 5-10 minutes. Appropriate controls (enzyme blank and enzyme with no inhibitor) were included on the plate. […] The plate was incubated at 25° C. for 1 hr. […] The plate was allowed to equilibrate for ˜1 hr before scanning the wells on a PheraStar plate reader.
(§2) GraphPad prism3 was used to analyze the data. The IC50 values were derived by fitting the data to the equation for a sigmoidal dose-response with a variable slope. Y=Bottom+(Top−Bottom)/(1+10^((Log IC50−X)*HillSlope)) where X is the logarithm of concentration and Y is the response.

[2] = target: FGFR2 (Homo sapiens (Human), UniProt P21802); assay: FGFR Enzymatic Assay (FGFR2); type: biochemical; details: enzyme 0.01 nM, ATP 100 μM; read-out: FGFR2 IC50;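 also: FRET read-out of peptide phosphorylation by the purified kinase, with enzyme-free blank and uninhibited enzyme as controls, potency from a variable-slope sigmoidal dose-response fit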
Experimental: as §1, §2

[3] = target: FGFR1 (Homo sapiens (Human), UniProt P11362); assay: FGFR Enzymatic Assay (FGFR1); type: biochemical; details: enzyme 0.02 nM, ATP 210 μM
FGFR1, sequence (P11362 22-822): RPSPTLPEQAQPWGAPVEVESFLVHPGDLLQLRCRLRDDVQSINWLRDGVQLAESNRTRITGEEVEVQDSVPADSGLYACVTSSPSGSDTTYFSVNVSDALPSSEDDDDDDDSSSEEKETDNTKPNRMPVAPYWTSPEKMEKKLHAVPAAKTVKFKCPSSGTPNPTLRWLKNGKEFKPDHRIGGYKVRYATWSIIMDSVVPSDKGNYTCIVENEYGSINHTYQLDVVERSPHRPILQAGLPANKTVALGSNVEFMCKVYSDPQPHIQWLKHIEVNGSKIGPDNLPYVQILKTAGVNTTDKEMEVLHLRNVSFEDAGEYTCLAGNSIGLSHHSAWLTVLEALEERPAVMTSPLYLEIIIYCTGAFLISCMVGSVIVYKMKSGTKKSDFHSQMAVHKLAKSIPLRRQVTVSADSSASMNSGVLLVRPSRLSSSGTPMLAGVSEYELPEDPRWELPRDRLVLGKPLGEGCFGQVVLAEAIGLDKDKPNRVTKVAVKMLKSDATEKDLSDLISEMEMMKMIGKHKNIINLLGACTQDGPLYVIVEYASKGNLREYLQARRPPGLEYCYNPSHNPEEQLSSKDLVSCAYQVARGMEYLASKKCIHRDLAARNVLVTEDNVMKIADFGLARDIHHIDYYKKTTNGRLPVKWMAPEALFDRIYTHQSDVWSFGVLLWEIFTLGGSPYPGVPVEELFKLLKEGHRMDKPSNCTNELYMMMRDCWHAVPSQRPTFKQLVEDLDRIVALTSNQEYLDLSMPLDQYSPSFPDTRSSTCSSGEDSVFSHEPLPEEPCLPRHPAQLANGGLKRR
Experimental: as §1, §2

FGFR2, sequence (P21802 22-821): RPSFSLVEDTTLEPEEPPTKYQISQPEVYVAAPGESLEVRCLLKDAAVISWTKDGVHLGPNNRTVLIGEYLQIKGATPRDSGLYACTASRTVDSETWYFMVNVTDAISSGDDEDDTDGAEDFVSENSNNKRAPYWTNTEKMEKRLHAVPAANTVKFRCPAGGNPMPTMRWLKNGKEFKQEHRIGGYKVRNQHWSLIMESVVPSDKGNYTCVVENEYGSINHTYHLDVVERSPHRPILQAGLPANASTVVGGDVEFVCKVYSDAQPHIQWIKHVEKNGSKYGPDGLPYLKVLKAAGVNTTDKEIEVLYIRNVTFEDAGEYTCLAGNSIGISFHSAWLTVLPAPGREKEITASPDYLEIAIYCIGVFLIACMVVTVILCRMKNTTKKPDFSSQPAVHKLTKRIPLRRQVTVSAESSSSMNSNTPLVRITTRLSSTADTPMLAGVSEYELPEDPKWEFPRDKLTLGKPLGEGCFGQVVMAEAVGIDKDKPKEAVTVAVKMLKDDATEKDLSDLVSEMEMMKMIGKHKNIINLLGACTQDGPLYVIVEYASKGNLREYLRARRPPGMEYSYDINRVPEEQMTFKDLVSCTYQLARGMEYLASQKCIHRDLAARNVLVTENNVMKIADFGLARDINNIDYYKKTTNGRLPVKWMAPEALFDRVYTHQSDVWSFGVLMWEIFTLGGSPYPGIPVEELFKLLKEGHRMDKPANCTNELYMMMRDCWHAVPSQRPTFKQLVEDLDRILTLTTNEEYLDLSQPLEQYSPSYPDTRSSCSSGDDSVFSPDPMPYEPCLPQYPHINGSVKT
FGFR3 enzyme (Millipore), sequence (P22607 23-806): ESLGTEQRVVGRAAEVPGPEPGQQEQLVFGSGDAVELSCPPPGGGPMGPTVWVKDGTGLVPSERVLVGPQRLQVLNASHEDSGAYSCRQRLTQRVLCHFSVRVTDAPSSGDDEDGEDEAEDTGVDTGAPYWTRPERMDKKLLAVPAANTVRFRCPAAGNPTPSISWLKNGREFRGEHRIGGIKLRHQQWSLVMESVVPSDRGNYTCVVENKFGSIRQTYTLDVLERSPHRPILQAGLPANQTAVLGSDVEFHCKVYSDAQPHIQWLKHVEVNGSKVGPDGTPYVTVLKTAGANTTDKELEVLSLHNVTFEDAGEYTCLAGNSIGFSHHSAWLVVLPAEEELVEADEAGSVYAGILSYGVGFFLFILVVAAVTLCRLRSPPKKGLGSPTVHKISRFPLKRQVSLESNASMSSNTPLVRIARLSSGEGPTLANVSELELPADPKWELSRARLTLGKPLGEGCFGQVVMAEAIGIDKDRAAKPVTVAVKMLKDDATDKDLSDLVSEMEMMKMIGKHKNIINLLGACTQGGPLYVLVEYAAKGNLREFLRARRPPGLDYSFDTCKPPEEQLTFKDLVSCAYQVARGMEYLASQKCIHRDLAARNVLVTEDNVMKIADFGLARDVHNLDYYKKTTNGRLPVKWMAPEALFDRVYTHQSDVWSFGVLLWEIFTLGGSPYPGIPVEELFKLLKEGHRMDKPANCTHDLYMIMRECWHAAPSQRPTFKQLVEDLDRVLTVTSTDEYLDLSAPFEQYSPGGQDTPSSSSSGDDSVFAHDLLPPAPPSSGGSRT

| SMILES | IC50 ([1]; class symbols) [nM] | IC50 [2] [nM] | IC50 [3] [nM] | IC50 ([1]; numeric bounds) [nM] |
| --- | --- | --- | --- | --- |
| COc1cc(CCc2cnc3[nH]c(-c4ccc(N5CCN(C)CC5)cc4)cc3n2)c(Cl)c(OC)c1 [Example 48, 2-[2-(2-chloro-3,5-dimethoxyphenyl)ethyl]-6-[4-(4-methylpiperazin-1-yl)phenyl]-5H-pyrrolo[2,3-b]pyrazine] | < 100 | < 100 | < 100 | – |
| COc1cc(OC)c(Cl)c(CCc2cnc3[nH]c(-c4ccc(N5CCN(C)CC5)cc4)cc3n2)c1Cl [Example 49, 2-[2-(2,6-dichloro-3,5-dimethoxyphenyl)ethyl]-6-[4-(4-methylpiperazin-1-yl)phenyl]-5H-pyrrolo[2,3-b]pyrazine] | < 100 | < 100 | < 100 | – |
| COc1cc(CCc2cnc3[nH]c(-c4ccc(N5CCN(C)CC5)cc4)c(C)c3n2)cc(OC)c1 [Example 51, 2-[2-(3,5-dimethoxyphenyl)ethyl]-7-methyl-6-[4-(4-methylpiperazin-1-yl)phenyl]-5H-pyrrolo[2,3-b]pyrazine] | < 100 | < 100 | < 100 | – |
| CCc1c(-c2ccc(N3CCN(C)CC3)cc2)[nH]c2ncc(CCc3cc(OC)cc(OC)c3)nc12 [Example 52, 2-[2-(3,5-dimethoxyphenyl)ethyl]-7-ethyl-6-[4-(4-methylpiperazin-1-yl)phenyl]-5H-pyrrolo[2,3-b]pyrazine] | < 100 | < 100 | < 100 | – |
| COc1cc(CCc2cnc3[nH]c(-c4ccc(C(=O)NC(C)C)c(Cl)c4)cc3n2)cc(OC)c1 [Example 53, 2-Chloro-4-(2-(3,5-dimethoxyphenethyl)-5H-pyrrolo[2,3-b]pyrazin-6-yl)-N-isopropylbenzamide] | < 100 | < 100 | < 100 | – |
| COc1cc(CCc2cnc3[nH]c(-c4ccc(C(=O)N(C)C)c(Cl)c4)cc3n2)cc(OC)c1 [Example 56, 2-Chloro-4-(2-(3,5-dimethoxyphenethyl)-5H-pyrrolo[2,3-b]pyrazin-6-yl)-N,N-dimethylbenzamide] | < 100 | < 100 | < 100 | – |
| CNC(=O)c1ccc(-c2cc3nc(CCc4cc(OC)cc(OC)c4)cnc3[nH]2)cc1F [Example 57, 4-(2-(3,5-Dimethoxyphenethyl)-5H-pyrrolo[2,3-b]pyrazin-6-yl)-2-fluoro-N-methylbenzamide] | < 100 | < 100 | < 100 | – |
| COc1cc(CCc2cnc3[nH]c(-c4ccc5c(cnn5C)c4)cc3n2)cc(OC)c1 [Example 62, 2-(3,5-Dimethoxyphenethyl)-6-(1-methyl-1H-indazol-5-yl)-5H-pyrrolo[2,3-b]pyrazine] | < 100 | < 100 | < 100 | – |
| COc1cc(CCc2cnc3[nH]c(-c4ccnc(N5CCNCC5)c4)cc3n2)cc(OC)c1 [Example 64, 2-(3,5-Dimethoxyphenethyl)-6-(2-(piperazin-1-yl)pyridin-4-yl)-5H-pyrrolo[2,3-b]pyrazine] | < 100 | < 100 | < 100 | – |
| COc1cc(CCc2cnc3[nH]c(-c4cnc5nccnc5c4)cc3n2)cc(OC)c1 [Example 66, 7-(2-(3,5-Dimethoxyphenethyl)-5H-pyrrolo[2,3-b]pyrazin-6-yl)pyrido[2,3-b]pyrazine] | – | < 100 | < 100 | > 2000 |
| COc1cc(CCc2cnc3[nH]c(-c4ccc(N5CCN(CCO)CC5)cc4)cc3n2)cc(OC)c1 [Example 71, 2-(4-(4-(2-(3,5-Dimethoxyphenethyl)-5H-pyrrolo[2,3-b]pyrazin-6-yl)phenyl)piperazin-1-yl)ethanol] | < 100 | < 100 | < 100 | – |
| CNC(=O)c1cc(-c2cc3nc(CCc4cc(OC)cc(OC)c4)cnc3[nH]2)ccn1 [Example 73, 4-(2-(3,5-Dimethoxyphenethyl)-5H-pyrrolo[2,3-b]pyrazin-6-yl)-N-methylpicolinamide] | < 100 | < 100 | < 100 | – |
| COc1cc(CCc2cnc3[nH]c(-c4ccc(N5CCN(C)CC5=O)cc4)cc3n2)cc(OC)c1 [Example 76, 1-(4-(2-(3,5-Dimethoxyphenethyl)-5H-pyrrolo[2,3-b]pyrazin-6-yl)phenyl)-4-methylpiperazin-2-one] | < 100 | < 100 | < 100 | – |
| COc1cc(CCc2cnc3[nH]c(-c4ccc(N5CCC(O)CC5)cc4)cc3n2)cc(OC)c1 [Example 77, 1-(4-(2-(3,5-Dimethoxyphenethyl)-5H-pyrrolo[2,3-b]pyrazin-6-yl)phenyl)piperidin-4-ol] | < 100 | < 100 | < 100 | – |
| COc1cc(CCc2cnc3[nH]c(-c4cccc(N5CCNCC5)c4)cc3n2)cc(OC)c1 [Example 78, 2-(3,5-Dimethoxyphenethyl)-6-(3-(piperazin-1-yl)phenyl)-5H-pyrrolo[2,3-b]pyrazine] | < 100 | < 100 | < 100 | – |
| COc1cc(CCc2cnc3[nH]c(-c4cccc(N5CCN(C)CC5)c4)cc3n2)cc(OC)c1 [Example 79, 2-(3,5-Dimethoxyphenethyl)-6-(3-(4-methylpiperazin-1-yl)phenyl)-5H-pyrrolo[2,3-b]pyrazine] | < 100 | < 100 | < 100 | – |
| COc1cc(CCc2cnc3[nH]c(-c4ccc5c(c4)CC(=O)N5)cc3n2)cc(OC)c1 [Example 80, 5-(2-(3,5-Dimethoxyphenethyl)-5H-pyrrolo[2,3-b]pyrazin-6-yl)indolin-2-one] | < 100 | < 100 | < 100 | – |
| COc1cc(CCc2cnc3[nH]c(-c4ccc(N5CCN(C)C(=O)C5)cc4)cc3n2)cc(OC)c1 [Example 81, 4-(4-(2-(3,5-Dimethoxyphenethyl)-5H-pyrrolo[2,3-b]pyrazin-6-yl)phenyl)-1-methylpiperazin-2-one] | < 100 | < 100 | < 100 | – |
| COc1cc(CCc2cnc3[nH]c(-c4ccc(N5CCN(C)CC5)cc4)cc3n2)c(F)c(OC)c1 [Example 82, 2-(2-Fluoro-3,5-dimethoxyphenethyl)-6-(4-(4-methylpiperazin-1-yl)phenyl)-5H-pyrrolo[2,3-b]pyrazine] | < 100 | < 100 | < 100 | – |
| COc1cc(OC)c(F)c(CCc2cnc3[nH]c(-c4cn[nH]c4C)cc3n2)c1F [Example 83, 2-[2-(2,6-difluoro-3,5-dimethoxyphenyl)ethyl]-6-(5-methyl-1H-pyrazol-4-yl)-5H-pyrrolo[2,3-b]pyrazine] | < 100 | < 100 | < 100 | – |
| COc1cc(OC)c(F)c(CCc2cnc3[nH]c(-c4cnn(C)c4)cc3n2)c1F [Example 84, 2-(2,6-difluoro-3,5-dimethoxyphenethyl)-6-(1-methyl-1H-pyrazol-4-yl)-5H-pyrrolo[2,3-b]pyrazine] | < 100 | < 100 | < 100 | – |
| COc1cc(OC)c(F)c(CCc2cnc3[nH]c(-c4ccccc4C#N)cc3n2)c1F [Example 85, 2-(2-(2,6-difluoro-3,5-dimethoxyphenethyl)-5H-pyrrolo[2,3-b]pyrazin-6-yl)benzonitrile] | < 100 | < 100 | < 100 | – |
| COc1cc(OC)c(F)c(CCc2cnc3[nH]c(-c4cccnc4OC)cc3n2)c1F [Example 86, 2-(2,6-difluoro-3,5-dimethoxyphenethyl)-6-(2-methoxypyridin-3-yl)-5H-pyrrolo[2,3-b]pyrazine] | < 100 | < 100 | < 100 | – |
